In patent US11911373B2, “Attention evaluation and methods for medicating” (TECHNION RESEARCH & DEVELOPMENT FOUNDATION LIMITED, priority 2018, dated 2024):

Legend:
[1] = tested on: children suffering from ADHD; assay: Auditory Sustained Attention Test (ASAT, pre-pulse inhibition) before and 1 hour after MPH; type: in vivo, human; settings: re-test about 1 hour after taking MPH, versus baseline
Description: (§1) Test subjects were escorted by their parents, and were asked not to take the MPH treatment in the morning of the experiment, and not to drink stimulating beverages such as coffee or energy drinks. The parents signed the consent form and provided the demographic data, following which the subject commenced the 3 steps procedure: • Baseline ASAT and EDA tests: The child was asked to sit on a stable chair in front of a computer screen, connected with EDA and EMG electrodes and requested to follow the instructions before wearing the headphones: • “You will be hearing different types of tones, some will be powerful and some will be moderate. […] When the session ends, all tones will be terminated” • Children diagnosed with ADHD were asked to take the MPH treatment and come back to the test room after 50 minutes. Controls were asked to take a break and return to the test room after 50 minutes. • Post 1-hour ASAT and EDA tests were conducted as at step 1. Auditory Sustained Attention Test (ASAT) […]
(§2) The session starts with 3 minutes of acclimatization period with 57 dB background noise level that is delivered continuously throughout the session. […] Ten “No stimulus” trials were recorded in order to evaluate baseline noise levels. […] The PPI is calculated as percent of the habituated/inhibited response as follows: 100−(max response to “pre+pulse” trial/max response to “pulse alone” trial×100).

[2] = tested on: children suffering from ADHD; assay: Startle response, eye blink probability to startle stimuli; type: in vivo, human; settings: baseline higher than controls
Description: as §1, §2

[3] = tested on: children suffering from ADHD; assay: Electro dermal activity (EDA), skin conductance; type: in vivo, human; settings: baseline higher than controls
Description: Test subjects were escorted by their parents, and were asked not to take the MPH treatment in the morning of the experiment, and not to drink stimulating beverages such as coffee or energy drinks. The parents signed the consent form and provided the demographic data, following which the subject commenced the 3 steps procedure: • Baseline ASAT and EDA tests: The child was asked to sit on a stable chair in front of a computer screen, connected with EDA and EMG electrodes and requested to follow the instructions before wearing the headphones: • “You will be hearing different types of tones, some will be powerful and some will be moderate. […] When the session ends, all tones will be terminated” • Children diagnosed with ADHD were asked to take the MPH treatment and come back to the test room after 50 minutes. Controls were asked to take a break and return to the test room after 50 minutes. • Post 1-hour ASAT and EDA tests were conducted as at step 1. […]
Electrodermal activity was monitored by changes in the skin conductance. […] An isolated skin conductance coupler (Mindlife) applied a constant 0.5V (DC) potential across the electrode pair and measured the conductivity at a sample rate of 10 Hz.
Scoring of the EDA signal: During the 3 minutes acclimatization period (subjected only to a 57 dB background white noise), all electro-dermal responses were counted as non-specific EDAs. […]

[4] = tested on: rat; settings: rat model, cited Avital et al. 2011, PLoS One 6, e22059; cited from earlier work

COC(=O)C(c1ccccc1)C1CCCCN1 (stereo not shown) [MPH, methylphenidate]
ASAT performance (impairment across all pre-pulse intensities) following MPH treatment [1]: significantly recovered
eye blink probabilities to startle stimuli following MPH treatment [2]: do not alternate
EDAs (both specific and non-specific) following MPH treatment [3]: do not alternate
long term hormonal effects [4]: long term hormonal alterations related to hyper-anxiety and aggression
